Assay results as given in patent US11439642B2 (Adverio Pharma GmbH, priority 2010, dated 2022).

Assay: Pharmacokinetic parameters following intravenous administration in rats
Type: in vivo
Settings: rat; for MRT / half-life: male, Wistar, plasma, iv
Experimental: The pharmacokinetic parameters of the substance are determined in male CD-1 mice, male Wistar rats and female beagles. The administration volume is 10 ml/kg for mice, 5 ml/kg for rats and 0.5 ml/kg for dogs. Intravenous administration is via a formulation of species-specific plasma/DMSO (99/1) in the case of mice and rats and via water/PEG400/ethanol (50/40/10) in the case of dogs. For easier removal of blood, a silicone catheter is inserted into the right Vena jugularis externa of the rats before the administration of substance. The surgical intervention takes place one day prior to the experiment with isofluran anaesthesia and administration of an analgetic (atropine/rimadyl (3/1) 0.1 ml s.c.). Substance administration is as i.v. bolus in the case of mice, as i.v. bolus or via a 15-minute infusion in the case of rats and via a 15-minute infusion in the case of dogs. Removal of blood is after 0.033, 0.083, 0.17, 0.5, 1, 2, 3, 4, 6, 7 and 24 hours in the case of mice and, after a 15-minute infusion, after 0.083, 0.25, 0.28 0.33, 0.42, 0.75, 1, 2, 3, 4, 6, 7 and 24 hours in the case of dogs and rats and after an i.v. bolus administration, after 0.033, 0.083, 0.17, 0.5, 1, 2, 3, 4, 6, 7 and 24 hours in the case of rats. For all species, oral administration of the dissolved substance via gavage is carried out based on a water/PEG400/ethanol formulation (50/40/10). Here, the removal of blood from rats and dogs is after 0.083, 0.17, 0.5, 0.75, 1, 2, 3, 4, 6, 7 and 24 hours. The blood is removed into heparinized tubes. The blood plasma is then obtained by centrifugation; if required, it can be stored at −20° C. until further processing.
An internal standard (ZK 228859) is added to the unknown samples, calibration samples and QCs, and the protein is precipitated using excess acetonitrile. After addition of an ammonium acetate buffer (0.01 M, pH 6.8 (Example 1/3) or pH 3.0 (Example 2)) and subsequent vortexing, the mixture is centrifuged at 1000 g and the supernatant is examined by LC-MS/MS (API 4000, AB Sciex). Chromatographic separation is carried out on an Agilent 1100-HPLC. The injection volume is 10 μl. The separation column used is a Phenomenex Luna 5μ C8(2) 100 A 50×2 mm, adjusted to a temperature of 40° C. For Example 1, a binary mobile phase gradient at 400 μl/min is used (A: 0.01M ammonium acetate buffer pH 6.8, B: 0.1% formic acid in acetonitrile): 0 min (90% A), 1 min (90% A), 3.5 min (15% A), 4.5 min (15% A), 4.6 min (90% A), 7 min (90% A). For Example 2, a binary mobile phase gradient at 500 μl/min is used instead (A: 0.01M ammonium acetate buffer pH 3.0, B: 0.1% formic acid in acetonitrile): 0 min (90% A), 1.5 min (90% A), 3.5 min (10% A), 4.5 min (10% A), 5 min (90% A), 7 min (90% A). For Example 3, a binary mobile solvent gradient at 500 μl/min is used instead (A: 0.01M ammonium acetate buffer pH 6.8, B: 0.1% formic acid in acetonitrile): 0 min (90% A), 1 min (90% A), 3 min (10% A), 4 min (10% A), 4.5 min (90% A), 6 min (90% A). The temperature of the Turbo V ion source is 500° C. The following MS instrument parameters are used: curtain gas 20 units (Example 1), 16 units (Example 2) or 15 units (Example 3), ion spray voltage 5 kV (Example 1/2) or 4.5 units (Example 3), gas 1 35 units (Example 1/3) or 25 units (Example 2), gas 2 30 units, CAD gas 4 units (Example 1/3) or 3 units (Example 2). The substances are quantified by peak heights or areas using extracted ion chromatograms of specific MRM experiments.
The plasma concentration/time plots determined are used to calculate the pharmacokinetic parameters such as AUC, Cmax, MRT (mean residence time), t1/2 (half life) and CL (clearance) employing the validated pharmacokinetic calculation programs KinEx (Vers. 2.5 and 3).
As the substance quantification is carried out in plasma, it is necessary to determine the blood/plasma distribution of the substance to be able to adjust the pharamacokinetic parameters in an appropriate manner. […]

[1] = 0.3 mg/kg i.v. bolus administration
[2] = 0.3 mg/kg i.v., 15-minute infusion

Row | MRT [1] | half-life [1] | AUCnorm [1] | CLblood [1] | MRT [2] | half-life [2] | AUCnorm [2] | CLblood [2] | Structure (SMILES)
1 | 2.3 h | 1.9 h | 1.36 kg·h/L | 1.02 lh/kg | – | – | – | – | COC(=O)N(CC(F)(F)F)c1c(N)nc(-c2nn(Cc3ccccc3F)c3ncc(F)cc23)nc1N [Example 3, Methyl {4,6-diamino-2-[5-fluoro-1-(2-fluorobenzyl)-1H-pyrazolo[3,4-b]pyridin-3-yl]pyrimidin-5-yl}(2,2,2-trifluoroethyl)carbamate]
2 | – | – | – | – | 4.1 h | 3.4 h | 4.36 kg·h/L | 0.29 lh/kg | COC(=O)Nc1c(N)nc(-c2nn(Cc3ccccc3F)c3ncc(F)cc23)nc1N [Example 1, Methyl {4,6-diamino-2-[5-fluoro-1-(2-fluorobenzyl)-1H-pyrazolo[3,4-b]pyridin-3-yl]pyrimidin-5-yl}carbamate]
3 | 2.3 h | 1.7 h | 1.79 kg·h/L | 0.53 lh/kg | – | – | – | – | COC(=O)N(C)c1c(N)nc(-c2nn(Cc3ccccc3F)c3ncc(F)cc23)nc1N [Example 2]
